Tested on: HIV-infected subjects
Assay: Safety and tolerability (TEAEs, ECG, laboratory) after repeated oral administration, phase 2a study
Assay type: in vivo, human
Method: Participants were assigned to one of eight groups; each group (with one exception) included eight subjects receiving either ABX464 (n = 6) or the corresponding placebo (n = 2) according to a randomization code. […] In the present study with HIV-infected subjects, the first dose administered was 25 mg, given once or 3 times a day over a 2- to 3-week period. This initial dose was therefore considered safe for assessment of the safety and tolerability of ABX464 after repeated oral administrations in subjects infected by HIV and determination of the potential effect on the HIV viral load.
The final dosing protocol for each of the eight groups was as follows: group 1, 25 mg every 3 days for 2 to 3 weeks under fasted conditions; group 2, 25 mg once a day (q.d.) for 2 to 3 weeks under fasted conditions; group 3, 50 mg once a day for 2 to 3 weeks under fasted conditions; group 4, 50 mg 3 times a day (t.i.d.) for 4 weeks under fed conditions; group 5, 75 mg once a day for 2 weeks under fed conditions; group 6, 100 mg once a day for 2 to 3 weeks under fasted conditions; group 7, 150 mg every 3 days for 2 to 3 weeks under fed conditions; and group 8, 150 mg once a day for 2 weeks under fed conditions. Per the study protocol, the treatment period was defined as 2 weeks. […] The decision to proceed to the next highest dose was determined by the data and safety monitoring board after review of the laboratory safety data, vital signs, ECGs, and adverse event reports from the group receiving the current dose after 2 weeks of treatment.
Subjects were hospitalized from the day prior to the first dose to at least the morning of day 2. They were orally dosed with 25-mg capsules of ABX464 with 240 ml water under fed or fasted conditions. According to the group, subjects were dosed with 1, 2, 3, 4, or 6 capsules to deliver 25 mg, 50 mg, 75 mg, 100 mg, or 150 mg product, respectively, or the same number of placebo capsules.
Safety assessments and laboratory tests were carried out according to the schedules described in Table S4 for groups dosed every day, every 3 days, and 3 times a day. Follow-up visits were scheduled for 7 days after the last dose and subsequently once every week in order to assess the elimination of the main ABX464 metabolite and to assess the viral load. Follow-up visits were terminated when the virus load was within 0.5 log of the baseline value or after 3 follow-up visits, whichever came first. Prior to the statistical analyses, AEs were coded using the Medical Dictionary for Regulatory Activities (MedDRA dictionary; last available version) in order to be tabulated by system organ class (SOC) and preferred term (PT). The AEs were analyzed according to the treatment emergence phase from the first study drug administration on day 1 up to 48 h after the last study drug administration. The number and percentage of subjects with at least one TEAE were tabulated by SOC and PT for each group and dose. The number of occurrences of TEAEs was also analyzed in the same way by SOC and PT for each group and dose, by grade of severity for each group and dose, and by level of causality to the study drug for each group and dose.

[1] = Group 2 (n = 6), 25 mg q.d., fasted, Moderate
[2] = Group 3 (n = 7), 50 mg q.d., fasted, Mild
[3] = Group 3 (n = 7), 50 mg q.d., fasted, Moderate
[4] = Group 4 (n = 7), 50 mg t.i.d., fed, Mild
[5] = Group 4 (n = 7), 50 mg t.i.d., fed, Moderate

## FC(F)(F)Oc1ccc(Nc2ccc3cccc(Cl)c3n2)cc1 [ABX464]
[1]
  Subjects experiencing at least one TEAE: Total: 0 (0.0) No. (%)
  Subjects experiencing at least one TEAE: Upper abdominal pain: 0 (0.0) No. (%)
  Subjects experiencing at least one TEAE: Vomiting: 0 (0.0) No. (%)
[2]
  Subjects experiencing at least one TEAE: Abdominal pain: 0 (0.0) No. (%)
  Subjects experiencing at least one TEAE: Arthralgia: 1 (14.3) No. (%)
  Subjects experiencing at least one TEAE: Back pain: 0 (0.0) No. (%)
  Subjects experiencing at least one TEAE: Diarrhea: 0 (0.0) No. (%)
  Subjects experiencing at least one TEAE: Flank pain: 0 (0.0) No. (%)
  Subjects experiencing at least one TEAE: Gastrointestinal disorders: 1 (14.3) No. (%)
  Subjects experiencing at least one TEAE: Headache: 1 (14.3) No. (%)
  Subjects experiencing at least one TEAE: Injury, poisoning, and procedural complications: 0 (0.0) No. (%)
  Subjects experiencing at least one TEAE: Musculoskeletal and connective tissue disorders: 1 (14.3) No. (%)
  Subjects experiencing at least one TEAE: Nausea: 1 (14.3) No. (%)
  Subjects experiencing at least one TEAE: Neck pain: 0 (0.0) No. (%)
  Subjects experiencing at least one TEAE: Nervous system disorders: 1 (14.3) No. (%)
  Subjects experiencing at least one TEAE: Pain in extremity: 0 (0.0) No. (%)
  Subjects experiencing at least one TEAE: Sciatica, back pain: 0 (0.0) No. (%)
  Subjects experiencing at least one TEAE: Skin abrasion: 0 (0.0) No. (%)
  Subjects experiencing at least one TEAE: Total: 2 (28.6) No. (%)
  Subjects experiencing at least one TEAE: Upper abdominal pain: 0 (0.0) No. (%)
  Subjects experiencing at least one TEAE: Vomiting: 1 (14.3) No. (%)
[3]
  Subjects experiencing at least one TEAE: Abdominal pain: 0 (0.0) No. (%)
  Subjects experiencing at least one TEAE: Arthralgia: 0 (0.0) No. (%)
  Subjects experiencing at least one TEAE: Back pain: 0 (0.0) No. (%)
  Subjects experiencing at least one TEAE: Diarrhea: 0 (0.0) No. (%)
  Subjects experiencing at least one TEAE: Flank pain: 0 (0.0) No. (%)
  Subjects experiencing at least one TEAE: Headache: 1 (14.3) No. (%)
  Subjects experiencing at least one TEAE: Injury, poisoning, and procedural complications: 0 (0.0) No. (%)
  Subjects experiencing at least one TEAE: Musculoskeletal and connective tissue disorders: 0 (0.0) No. (%)
  Subjects experiencing at least one TEAE: Nausea: 0 (0.0) No. (%)
  Subjects experiencing at least one TEAE: Neck pain: 0 (0.0) No. (%)
  Subjects experiencing at least one TEAE: Nervous system disorders: 1 (14.3) No. (%)
  Subjects experiencing at least one TEAE: Pain in extremity: 0 (0.0) No. (%)
  Subjects experiencing at least one TEAE: Sciatica, back pain: 0 (0.0) No. (%)
  Subjects experiencing at least one TEAE: Skin abrasion: 0 (0.0) No. (%)
  Subjects experiencing at least one TEAE: Total: 1 (14.3) No. (%)
  Subjects experiencing at least one TEAE: Upper abdominal pain: 0 (0.0) No. (%)
  Subjects experiencing at least one TEAE: Vomiting: 0 (0.0) No. (%)
[4]
  Subjects experiencing at least one TEAE: Abdominal pain: 0 (0.0) No. (%)
  Subjects experiencing at least one TEAE: Arthralgia: 1 (14.3) No. (%)
  Subjects experiencing at least one TEAE: Back pain: 2 (28.6) No. (%)
  Subjects experiencing at least one TEAE: Diarrhea: 0 (0.0) No. (%)
  Subjects experiencing at least one TEAE: Flank pain: 0 (0.0) No. (%)
  Subjects experiencing at least one TEAE: Gastrointestinal disorders: 3 (42.9) No. (%)
  Subjects experiencing at least one TEAE: Headache: 2 (28.6) No. (%)
  Subjects experiencing at least one TEAE: Injury, poisoning, and procedural complications: 0 (0.0) No. (%)
  Subjects experiencing at least one TEAE: Musculoskeletal and connective tissue disorders: 3 (42.9) No. (%)
  Subjects experiencing at least one TEAE: Nausea: 0 (0.0) No. (%)
  Subjects experiencing at least one TEAE: Neck pain: 1 (14.3) No. (%)
  Subjects experiencing at least one TEAE: Nervous system disorders: 2 (28.6) No. (%)
  Subjects experiencing at least one TEAE: Pain in extremity: 1 (14.3) No. (%)
  Subjects experiencing at least one TEAE: Sciatica, back pain: 0 (0.0) No. (%)
  Subjects experiencing at least one TEAE: Skin abrasion: 0 (0.0) No. (%)
  Subjects experiencing at least one TEAE: Total: 7 (100.0) No. (%)
  Subjects experiencing at least one TEAE: Upper abdominal pain: 2 (28.6) No. (%)
  Subjects experiencing at least one TEAE: Vomiting: 1 (14.3) No. (%)
[5]
  Subjects experiencing at least one TEAE: Abdominal pain: 0 (0.0) No. (%)
  Subjects experiencing at least one TEAE: Arthralgia: 0 (0.0) No. (%)
  Subjects experiencing at least one TEAE: Back pain: 0 (0.0) No. (%)
  Subjects experiencing at least one TEAE: Diarrhea: 0 (0.0) No. (%)
  Subjects experiencing at least one TEAE: Flank pain: 0 (0.0) No. (%)
  Subjects experiencing at least one TEAE: Gastrointestinal disorders: 1 (14.3) No. (%)
  Subjects experiencing at least one TEAE: Headache: 0 (0.0) No. (%)
  Subjects experiencing at least one TEAE: Injury, poisoning, and procedural complications: 0 (0.0) No. (%)
  Subjects experiencing at least one TEAE: Musculoskeletal and connective tissue disorders: 0 (0.0) No. (%)
  Subjects experiencing at least one TEAE: Nausea: 0 (0.0) No. (%)
  Subjects experiencing at least one TEAE: Neck pain: 0 (0.0) No. (%)
  Subjects experiencing at least one TEAE: Nervous system disorders: 0 (0.0) No. (%)
  Subjects experiencing at least one TEAE: Pain in extremity: 0 (0.0) No. (%)
  Subjects experiencing at least one TEAE: Sciatica, back pain: 0 (0.0) No. (%)
  Subjects experiencing at least one TEAE: Skin abrasion: 0 (0.0) No. (%)
  Subjects experiencing at least one TEAE: Total: 1 (14.3) No. (%)
  Subjects experiencing at least one TEAE: Upper abdominal pain: 1 (14.3) No. (%)
  Subjects experiencing at least one TEAE: Vomiting: 0 (0.0) No. (%)
Group 5 (n = 6), 75 mg q.d., fed, Mild
  Subjects experiencing at least one TEAE: Abdominal pain: 0 (0.0) No. (%)
